The values below are quoted from earlier work in patent US11419848B2, “Combination of unsaponifiable lipids combined with polyphenols and/or catechins for the protection, treatment and repair of cartilage in joints of humans and animals” (NUTRAMAX LABORATORIES, INC., priority 2004, dated 2022).

The test system of series [1] is IL-1 induced expression of nitric oxide synthase and nitric oxide production.
For series [2] the following is noted: identified in ethanolic extract of cactus.
Another series concerns carrageenan paw oedema. Particulars: rats, extracts of Verbena officinalis.
In series [3] the test system is chronic inflammation model. Conditions: administered topically and in a chronic inflammation model, mouse.

Turning to `O=C(O[C@@H]1Cc2c(O)cc(O)cc2O[C@@H]1c1cc(O)c(O)c(O)c1)c1cc(O)c(O)c(O)c1` [EGCG, epigallocatechin gallate], in series [1], the “IL-1 induced expression of nitric oxide synthase and nitric oxide production” value is given as “inhibits”; the “activation of nuclear factor-kB” value is given as “suppresses”.

As for `CC[C@H](CC[C@@H](C)[C@H]1CC[C@H]2[C@@H]3CC=C4C[C@@H](O)CC[C@]4(C)[C@H]3CC[C@]12C)C(C)C` [beta sitosterol], the anti-inflammatory activity result in series [2] is listed as “anti-inflammatory activity”; with carrageenan paw oedema, “one of the potent anti-inflammatory agents”; in series [3] it was “potent anti-inflammatory agents”.

Consider `CC[C@H](/C=C/[C@@H](C)[C@H]1CC[C@H]2[C@@H]3CC=C4C[C@@H](O)CC[C@]4(C)[C@H]3CC[C@]12C)C(C)C` [stigmasterol], for which, in series [3], the anti-inflammatory activity entry is on record as “potent anti-inflammatory agents”.
